Assay results reported in patent US10913972B2, “5,5-disubstituted luciferins and their use in luciferase-based assays” (Promega Corporation, priority 2016, dated 2021).
“Also recorded” adds a separate entry of the source.

Tests used:
UltraGlo luciferase = assay: RLU of 5,5-disubstituted luciferin analogs normalized to racemic luciferins (Table 1); type: biochemical; settings: normalized to 1 mM racemic luciferins under identical conditions
Method: Further tests were conducted at various substrate concentrations in the presence of sub-saturating D-Luciferin as a means to compare the binding affinity of the substrates. Solutions of 0.005 mg/ml Click Beetle-Green luciferase (CBG) or UltraGlo luciferase were prepared in Bright-Glo™ assay buffer (Promega E263A) with 3 mM ATP. A 2 mM solution of each substrate was then prepared in water containing D-Luciferin (sub-saturating). Each substrate+D-Luciferin was two-fold serially diluted in luciferin free water. A sample of 50 μL of each substrate dilution was combined with 50 μL of the enzyme solution. Samples were incubated at room temperature for one minute, and luminescence was measured on a GLOMAX® Multi+ plate luminometer. […] (FIG. 5A-F). RLU values for certain representative compounds (normalized to racemic luciferins under identical conditions) are provided in Table 1 above. For certain representatative compounds, substrate titration tests were performed using procedures as described herein without comparison to luciferins, therefore providing RLU values not normalized to those of luciferins.
(§1) To determine if luciferin analogs with substitutions at the 5,5 position could be substrates for UltraGlo™ luciferase, tests were performed with analogs containing various di-substitutions of alkyl groups and closed ring structures in luminescence assays. A solution of 0.005 mg/ml UltraGlo™ luciferase (Promega Corp) prepared in 1×TBS+1% Prionex was combined with 0.5 mM ATP in Bright-Glo™ assay buffer (Promega E263A). All substrates were diluted separately in DMSO to 20 mM. After a 30-minute incubation at room temperature, diluted substrate was added to 1 mM final concentration in the reaction and mixed by pipetting. Reactions were further incubated at room temperature for 1 minute, and luminescence measured on a GLOMAX® Multi+ plate luminometer.

UltraGlo™ luciferase = assay: Luminescence assay of 5,5-substituted analogs as substrates for UltraGlo™ luciferase (FIG. 7); type: biochemical; settings: 1 mM substrate, 0.005 mg/ml enzyme, 0.5 mM ATP, 1 minute at room temperature
Method: as §1

ULTRA-GLO™ luciferase = assay: Inhibition of luciferase activity by dehydroluciferins; type: biochemical; settings: titrated from 0.25 mM in 0.25 mM racemic luciferin, 0.1 mM ATP, 1 minute
Method: Inhibition of luciferase activity by dehydroluciferins: ULTRA-GLO™ luciferase (Promega, 0.1 mg/mL)+0.1% PRIONEX® in detection reagent buffer was prepared. The solution was divided into 2 portions with 0.25 mM Racemic H-Luciferin added to one portion and 0.25 mM racemic NH2 luciferin to the other portion. H-dehydroluciferin (0.25 mM) was added to an aliquot of the racemic H-Luciferin solution, and NH2-dehydroluciferin (0.25 mM) was added to an aliquot of the racemic NH2 luciferin solution. 2× serial dilutions of each of the dehydroluciferin samples were prepared using the racemic solutions as a diluent (500 μL of dehydroluciferin solution added to 500 μL of ULTRA-GLO™+racemic luciferin). 50 μL of each titration series was then added to […] 0.1 mM ATP. The samples were incubated for 1 minute, and the luminescence was measured on GLOMAX®-Multi+ plate luminometer (n=6).

[1] = Thermal stability of luciferin stock solutions at 60° C. by RP-HPLC; settings: stock solution pH=6.0, 7.0 mM; for Thermal stability (decomposition in solution): detergents, ULTRA-GLO luciferase 0.1 mg/mL
[2] = test system: firefly or click beetle luciferases; settings: Branchini et al., J. Am. Chem. Soc. 2002; cited from earlier work
[3] = test system: recombinant beetle luciferases; settings: only the D-form; Viviani et al., Biochemistry 2014; cited from earlier work

RLU% (RLU normalized to the one generated by 1 mM racemic luciferins under identical conditions) (UltraGlo luciferase) [%]	SMILES	further results
0.22	O=C(O)C1N=C(c2nc3ccc(O)cc3s2)SC12CCCCC2 (stereo not drawn) [CS0325, 2-(6-hydroxybenzo[d]thiazol-2-yl)-1-thia-3-azaspiro[4.5]dec-2-ene-4-carboxylic acid]	–
0.43	O=C(O)C1N=C(c2nc3ccc(O)cc3s2)SC12CCCC2 (stereo not drawn) [CS0326, 2-(6-hydroxybenzo[d]thiazol-2-yl)-1-thia-3-azaspiro[4.4]non-2-ene-4-carboxylic acid]	–
0.29	O=C(O)C1N=C(c2nc3ccc(O)cc3s2)SC12CCC2 (stereo not drawn) [CS0329, 6-(6-hydroxybenzo[d]thiazol-2-yl)-5-thia-7-azaspiro[3.4]oct-6-ene-8-carboxylic acid]	–
0.60	CCC1(CC)SC(c2nc3ccc(O)cc3s2)=NC1C(=O)O (stereo not drawn) [CS0330, 5,5-diethyl-2-(6-hydroxybenzo[d]thiazol-2-yl)-4,5-dihydrothiazole-4-carboxylic acid]	–
0.27	O=C(O)C1N=C(c2nc3ccc(O)cc3s2)SC12CC2 (stereo not drawn) [CS0333, 5-(6-hydroxybenzo[d]thiazol-2-yl)-4-thia-6-azaspiro[2.4]hept-5-ene-7-carboxylic acid]	–
0.64	CCC1(CC)SC(c2nc3cc(F)c(O)cc3s2)=NC1C(=O)O (stereo not drawn) [CS0388, 5,5-diethyl-2-(5-fluoro-6-hydroxybenzo[d]thiazol-2-yl)-4,5-dihydrothiazole-4-carboxylic acid]	Luminescence as substrate (UltraGlo™ luciferase): measurable luminescence values
0.13	O=C(O)C1N=C(c2nc3cc(F)c(O)cc3s2)SC12CCCCC2 (stereo not drawn) [CS0392, 2-(5-fluoro-6-hydroxybenzo[d]thiazol-2-yl)-1-thia-3-azaspiro[4.5]dec-2-ene-4-carboxylic acid]	Luminescence as substrate (UltraGlo™ luciferase): measurable luminescence values
1.0	O=C(O)C1N=C(c2nc3ccc(O)cc3s2)SC1(Cc1ccccc1)Cc1ccccc1 (stereo not drawn) [CS0396, 5,5-dibenzyl-2-(6-hydroxybenzo[d]thiazol-2-yl)-4,5-dihydrothiazole-4-carboxylic acid]	Luminescence as substrate (UltraGlo™ luciferase): measurable luminescence values
0.13	O=C(O)C1N=C(c2nc3ccc(O)cc3s2)SC12CCCCCC2 (stereo not drawn) [CS0397, 2-(6-hydroxybenzo[d]thiazol-2-yl)-1-thia-3-azaspiro[4.6]undec-2-ene-4-carboxylic acid]	–
0.31	CC1CCC2(CC1)SC(c1nc3ccc(O)cc3s1)=NC2C(=O)O (stereo not drawn) [CS0404, 2-(6-hydroxybenzo[d]thiazol-2-yl)-8-methyl-1-thia-3-azaspiro[4.5]dec-2-ene-4-carboxylic acid]	–
0.20	CN1CCC2(CC1)SC(c1nc3ccc(O)cc3s1)=NC2C(=O)O (stereo not drawn) [CS0420, 2-(6-hydroxybenzo[d]thiazol-2-yl)-8-methyl-1-thia-3,8-diazaspiro[4.5]dec-2-ene-4-carboxylic acid]	–
0.16	CCCC1(CCC)SC(c2nc3ccc(O)cc3s2)=NC1C(=O)O (stereo not drawn) [CS0427, 2-(6-hydroxybenzo[d]thiazol-2-yl)-5,5-dipropyl-4,5-dihydrothiazole-4-carboxylic acid]	–
0.09	O=C(O)C1N=C(c2nc3ccc(O)cc3s2)SC12CCOCC2 (stereo not drawn) [CS0439, 2-(6-hydroxybenzo[d]thiazol-2-yl)-8-oxa-1-thia-3-azaspiro[4.5]dec-2-ene-4-carboxylic acid]	–
–	O=C(O)c1csc(-c2nc3ccc(O)cc3s2)n1 [H-dehydroluciferin]	Inhibition of luciferase activity (ULTRA-GLO™ luciferase): potent inhibitors
–	CC1(C)SC(c2nc3ccc(O)cc3s2)=NC1C(=O)O (stereo not drawn) [III-a, 2-(6-hydroxybenzo[d]thiazol-2-yl)-5,5-dimethyl-4,5-dihydrothiazole-4-carboxylic acid]	Thermal stability (decomposition in solution) [1]: virtually no decomposition; also recorded: more thermally stable than the unsubstituted luciferin; Light production via luciferase mediated processes [2]: incapable of producing light
–	CC1(C)SC(c2nc3ccc(N)cc3s2)=NC1C(=O)O (stereo not drawn) [III-b, 2-(6-aminobenzo[d]thiazol-2-yl)-5,5-dimethyl-4,5-dihydrothiazole-4-carboxylic acid]	Thermal stability (decomposition in solution) [1]: virtually no decomposition; also recorded: more thermally stable than the unsubstituted luciferin; Light production [3]: produce light
–	Nc1ccc2nc(-c3nc(C(=O)O)cs3)sc2c1 [NH2-dehydroluciferin]	Inhibition of luciferase activity (ULTRA-GLO™ luciferase): potent inhibitors
–	O=C(O)[C@H]1CSC(c2nc3ccc(O)cc3s2)=N1 [unsubstituted luciferin]	Thermal stability (decomposition in solution) [1]: significant decomposition; Major degradation product ([1]; with or without ULTRA-GLO luciferase): dehydroluciferin
